What was measured:
Type in all cases: cell-based
[1] = tested on: UROtsa urinary epithelial cells; assay: Cytotoxicity, MTT assay; details: Epithelial cell, 48 h, read-out: IC50
Procedure: (§1) Two cell lines, including Raw 264.7 macrophages and the urinary epithelial cell line UROtsa obtained from the American Type Culture Collection (Rockville, MD, USA), were used. They were cultured in Dulbecco's modified Eagle's medium (DMEM), which was supplemented with 10% fetal bovine serum (FBS) and 1% penicillin, streptomycin, and fungizone (PSF). They were then grown at 37°C in a humidified environment containing 5% CO2.
(§2) The cytotoxicity of the selected synergistic combinations, as well as the individual constituents of combinations, against the abovementioned cell lines was performed by the MTT assay as previously described. Briefly, cells from each line were harvested in the logarithmic phase using trypsin (0.05% trypsin, 0.02% EDTA in PBS). Cell suspension was diluted with an appropriate growth medium to obtain a cell density of 10^4 cells/well. A 100 µL aliquot of each suspension was seeded into 96-well cell culture plates and incubated at 37°C in an atmosphere of 5% CO2 and 95% relative humidity. After 24 h of incubation, 100 µL of samples (ATBs and NPs) at concentrations varying from 0.01, 0.1, 1, 10, 100, and 1000, as well as the synergistic combinations (C1 to C5), was added to the wells containing the cells. Doxorubicin was used as a positive control. Appropriate controls with an equivalent concentration of DMSO were also included. Plates were incubated for 48 h, then the medium in each well was aspirated, and MTT solution (2 mg/mL in PBS) was diluted 1:10 with fresh medium and added to each well, and the plates were further incubated at 37°C for 4 h. Absorbance was measured on a BioTek microplate reader at 570 nm. The percentage of cell viability was calculated by comparing treated and untreated cells using the equation [39]:(3) cell viability %=ODtest/ODcontrol×100.
(§3) Then, the IC50 values of the samples having shown at least 50% inhibition were calculated by plotting the percentage of inhibition against the concentrations.

Raw 264.7 macrophages = assay: Cytotoxicity, MTT assay; details: Mus musculus, RAW264.7, 48 h, Raw 264.7, MTT, read-out: IC50
Procedure: as §1, §2, §3

[2] = tested on: Staphylococcus saprophyticus biofilm; assay: Checkerboard combination assay, biofilm eradication; details: S. saprophyticus biofilm eradication; natural product alone; mean MBEC
Procedure: (§4) The effect of the combination of ATBs with NPs on the preformed biofilm was evaluated by determining the FICI, as described above for biofilm formation, with slight modifications. After biofilm formation for 24 h, the plate was gently emptied and washed three times with PBS. Then, 50 µL of ATBs and 50 µL of NPs were introduced to the plate. The final concentration ranges from 0.0625 to 128 µg/mL and from 4 to 512 µg/mL for ATBs and NPs, respectively, and is incubated at 37°C for 24 h. After incubation, the medium was gently removed, and the plate was washed three times with PBS. At the end of the incubation time, the MTT reduction assay was performed, and the MBEC was determined. To assess the effect of the combination, the FICI was calculated and interpreted as described above.

[3] = tested on: Staphylococcus epidermidis biofilm; assay: as above; details: S. epidermidis biofilm eradication; natural product alone; mean MBEC
Procedure: as §4

Structure (SMILES) | IC50 [1] [µg/mL] | IC50 (Raw 264.7 macrophages) [µg/mL] | MBEC Alone NPs [2] [µg/mL] | MBEC Alone NPs [3] [µg/mL]
COc1cccc2c1C(=O)c1c(O)c3c(c(O)c1C2=O)C[C@@](O)(C(=O)CO)C[C@@H]3O[C@H]1C[C@H](N)[C@H](O)[C@H](C)O1 [Doxorubicin, doxorubicin] | 1.58 | 1.26 | – | –
O=c1c(O)c(-c2ccc(O)c(O)c2)oc2cc(O)cc(O)c12 [Quer] | – | – | 256 | 170.66

From paper PMC12339163, “Combining Plant Bioactives With Antibiotics for Enhanced Antibiofilm Activity Against Uropathogenic Staphylococcus spp. and Cytotoxicity Evaluation” (Advances in Pharmacological and Pharmaceutical Sciences, 2025)
